According to article PMC5341033, “Transcriptomic insight into terpenoid and carbazole alkaloid biosynthesis, and functional characterization of two terpene synthases in curry tree (Murraya koenigii)” (Scientific Reports, 2017):

Columns and labels:
MkTPS1 = biological target: T1, MkTPS1 (Murraya koenigii, UniProt A0A1U9M7Y9); test: terpene synthase assay, SPME GC-MS of products; format: biochemical; details: 70 μM GPP; 1 mM MgCl2, 5 mM DTT, 30 mM HEPES pH 7.5, 30 °C 2 h; product (−)-sabinene
T1 construct: plastid transit peptide truncated at Met-40; full length 602 aa; E. coli Rosetta-2; Ni-NTA purified

MkTPS2 = biological target: T2, MkTPS2 (Murraya koenigii, UniProt A0A1U9M7X9); test: terpene synthase assay, SPME GC-MS of products; format: biochemical; details: 70 μM FPP; 1 mM MgCl2, 5 mM DTT, 30 mM HEPES pH 7.5, 30 °C 2 h; product (E,E)-α-farnesene
T2 construct: full-length ORF, 560 aa; E. coli Rosetta-2; Ni-NTA purified
T2 sequence (A0A1U9M7X9 entry or part of it): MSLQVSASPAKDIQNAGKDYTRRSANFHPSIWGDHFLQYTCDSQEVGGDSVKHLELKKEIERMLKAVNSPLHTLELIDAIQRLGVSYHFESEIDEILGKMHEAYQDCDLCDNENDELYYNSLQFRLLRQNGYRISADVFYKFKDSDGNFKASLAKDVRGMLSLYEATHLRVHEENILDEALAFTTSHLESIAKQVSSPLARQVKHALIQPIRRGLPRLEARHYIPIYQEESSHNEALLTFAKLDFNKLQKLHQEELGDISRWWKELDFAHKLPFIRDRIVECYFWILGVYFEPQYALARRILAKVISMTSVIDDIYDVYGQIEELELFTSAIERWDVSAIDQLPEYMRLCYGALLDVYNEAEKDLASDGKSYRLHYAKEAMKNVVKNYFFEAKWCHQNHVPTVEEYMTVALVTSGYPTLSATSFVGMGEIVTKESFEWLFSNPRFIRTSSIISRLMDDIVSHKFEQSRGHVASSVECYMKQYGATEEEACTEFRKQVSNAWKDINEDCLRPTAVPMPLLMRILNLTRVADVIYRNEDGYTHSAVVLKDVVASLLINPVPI

T1 sequence (A0A1U9M7Y9 entry or part of it): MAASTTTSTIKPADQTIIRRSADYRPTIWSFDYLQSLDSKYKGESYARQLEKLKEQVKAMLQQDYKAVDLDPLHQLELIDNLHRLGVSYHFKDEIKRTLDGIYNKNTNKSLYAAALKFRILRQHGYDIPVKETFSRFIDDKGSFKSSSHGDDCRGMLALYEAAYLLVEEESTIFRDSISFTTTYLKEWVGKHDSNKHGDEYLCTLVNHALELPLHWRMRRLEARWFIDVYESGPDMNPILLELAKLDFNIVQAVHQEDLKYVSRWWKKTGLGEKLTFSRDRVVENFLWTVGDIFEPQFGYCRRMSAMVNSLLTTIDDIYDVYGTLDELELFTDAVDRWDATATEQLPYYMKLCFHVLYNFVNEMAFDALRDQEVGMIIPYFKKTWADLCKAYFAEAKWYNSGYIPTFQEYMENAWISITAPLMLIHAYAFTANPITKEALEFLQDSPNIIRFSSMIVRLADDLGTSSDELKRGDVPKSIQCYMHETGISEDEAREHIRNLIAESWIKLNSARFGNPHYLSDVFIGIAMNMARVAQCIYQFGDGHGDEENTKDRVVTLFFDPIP

Compound | terpene synthase assay, SPME GC-MS of products (MkTPS1) | terpene synthase assay, SPME GC-MS of products (MkTPS2)
CC(C)=CCC/C(C)=C/COP(=O)(O)OP(=O)(O)O [geranyl diphosphate] | MkTPS1 showed the formation of predominantly sabinene utilizing GPP as substrate | 
CC(C)=CCC/C(C)=C/CC/C(C)=C/COP(=O)(O)OP(=O)(O)O [farnesyl diphosphate] |  | MkTPS2, the product analysis showed the formation of α-farnesene with FPP as substrate
